# Measured values from US20070202574A1, “Novel Saccharothrix Strain an Antibiotics Derived Therefrom, i.e. Mutactimycins and Aldgamycins” (Institut National Polytechnique de Toulouse, priority 2004, published 2007).
# Values joined by “and” are separate entries in the source; they are usually repeats but may differ in a detail not shown here. Identical values can stand only once. “Also recorded” adds a separate entry of the source.
# Key:
# [1] = test system: Mycobacterium smegmatis ATCC 607; test: MIC, antimicrobial spectrum; type: cell-based; conditions: for activity in words: Mycobacterium smegmatis; for MIC: Mycolicibacterium smegmatis, ATCC607, Mycobacterium smegmatis ATCC 607
# [2] = Relative solubility in solvents; type: physicochemical; conditions: value = list of solvents; for Relative solubility: Highly soluble (solvents) / Relative solubility: Insoluble (solvents) / Relative solubility: Medium soluble (solvents): wrapped cells given line by line
# Excerpt: The antibiotics P11, PR, F and G are bright red in colour at neutral pH, yellow at acid pH and violet-blue at basic pH. P11 is the majority antibiotic and PR, the minority antibiotic. These antibiotics were the subject of the following […] analyses: UV visible light, infrared, mass spectrometry and NMR of the proton and carbon 13 (with studies of the correlations). Supplementary tests, such a solubility, determination of Rf by CCM and elemental analysis (the latter only for P11) were also carried out.
# [3] = test system: Micrococcus luteus ATCC 9314; test: MIC, antimicrobial spectrum; type: cell-based; conditions: for MIC: ATCC9314, Micrococcus luteus ATCC 9314; for activity in words: M. luteus
# Bacillus subtilis = test: HPLC fractions tested against Bacillus subtilis (gelose diffusion test); type: cell-based; conditions: concentrated HPLC peak fractions
# Method: A sample of the strain SA 103 taken from an immature inclined culture was inoculated into an Erlenmeyer flask containing 50 ml of the sterile culture medium containing 0.4t glucose, a 1% malt extract and a 0.4% yeast extract (adjusted to pH 7.2 before sterilisation) and placed in culture on a rotary stirrer (250 rpm) at 30° C. for two days. For producing antibiotics, 3 ml of culture medium were transferred to 500 ml Erlenmeyer flasks, each containing 100 ml of the above medium, and placed in culture for 10 days using the same conditions. The production of total antibacterial activity was carried out on a nutrient gelose, by a gelose diffusion test against Bacillus sutilis ATCC 6633. Inhibition of growth was examined after 24 hours of incubation at 30° C. Antimicrobial activity was estimated by measuring the diameter of the inhibition zone. The dry weight of the mycelium was determined in Eppendorf tubes filled with 1 ml of homogenized culture medium and dried at 105° C. for 24 hours (Pfefferle et al. J. Biotech. 80:135-142, 2000).
# The butanolic extract, of a red colour, was concentrated on the Rotavapor. An aliquot of this extract was first sent through a Sephadex LH 20 column using methanol in double distilled water (80%) as the mobile phase. However, the separation of the antibiotics (visualisation by the naked eye and by the antibiography) was not conclusive. This step was therefore eliminated and the butanolic extract was purified directly by a reverse phase HPLC using a C18 column and isocratic conditions (63% methanol in water), a flow rate of 1.5 ml/min and detection at 220 nm. The fractions corresponding to all the peaks obtained on the profile were collected separately, concentrated and tested against Bacillus subtilis. […] These antibiotics were purified by HPLC after 3 to 4 reinjections in the same conditions as previously.
# [4] = test system: Bacillus subtilis ATCC 6633; test: MIC, antimicrobial spectrum; type: cell-based; conditions: for MIC: ATCC6633, Bacillus subtilis ATCC 6633
# [5] = test system: Mucor ramannianus NRRL 1829; test: MIC, antimicrobial spectrum; type: cell-based; conditions: Umbelopsis ramanniana, NRRL1829
# [6] = test system: Listeria monocytogenes CIP 82110; test: MIC, antimicrobial spectrum; type: cell-based; conditions: CIP82110, Listeria monocytogenes CIP 82110
# [7] = test system: Staphylococcus aureus CIP 53156; test: MIC, antimicrobial spectrum; type: cell-based; conditions: for activity in words: Staphylococcus aureus CIP 53156; for MIC: Staphylococcus aureus, CIP53156, Staphylococcus aureus CIP 53156
# [8] = test system: Staphylococcus aureus CIP 7625; test: MIC, antimicrobial spectrum; type: cell-based; conditions: CIP7625
# [9] = test system: Pseudomonas syringae No 1882; test: MIC, antimicrobial spectrum; type: cell-based; conditions: NO1882
# [10] = test system: Klebsiella pneumoniae CIP 82.91; test: MIC, antimicrobial spectrum; type: cell-based; conditions: for activity in words: K. pneumoniae; for MIC: Klebsiella pneumoniae, CIP82, Klebsiella pneumoniae CIP 82.91
# [11] = test system: Escherichia coli ATCC 10536; test: MIC, antimicrobial spectrum; type: cell-based; conditions: ATCC10536
# [12] = test system: Saccharomyces cerevisiae ATCC 4226; test: MIC, antimicrobial spectrum; type: cell-based; conditions: ATCC4226
# [13] = test system: Agrobacterium tumefaciens No 2410; test: MIC, antimicrobial spectrum; type: cell-based; conditions: NO2410
MIC [1] [µg/mL],Relative solubility: Insoluble (solvents) [2],MIC [3] [µg/mL],MIC [4] [µg/mL],MIC [5] [µg/mL],MIC [6] [µg/mL],MIC [7] [µg/mL],MIC [8] [µg/mL],MIC [9] [µg/mL],MIC [10] [µg/mL],MIC [11] [µg/mL],MIC [12] [µg/mL],MIC [13] [µg/mL],Structure (SMILES),activity in words [1],Relative solubility: Highly soluble (solvents) [2],activity in words [3],activity of the collected HPLC fraction against Bacillus subtilis (Bacillus subtilis),activity in words [4],activity in words [7],activity in words [10],further results
,,1,,> 100,,,> 100,> 100,,> 100,> 100,> 100,"COC1C(OCC2C(C)OC(=O)/C=C/C(C)C(OC3OC(C)CC(O)(C(C)O)C3O)C(C)CC(C)C(=O)/C=C/C3OC32)OC(C)C(O)C1OC (stereo not drawn) [P8, aldgamycin H]",,"methanol, n-butanol, ethanol, 1 and 2-propnol, ethyl acetate, acetone, chloroform and dichloromethane; also recorded: MeOH, EtOR, Me2CO,; also recorded: n-BuOH, 1-PrOH, 2-; also recorded: PrOH, CH2Cl2,; also recorded: EtOAc, CHCl3",,active,,,,
50,water and n-hexane,1,1,> 100,30,1,> 100,> 100,0.1,> 100,> 100,> 100,"COC1C(OCC2/C=C/C=C/C(=O)C(C)CC(C)C(OC3OC(C)CC(O)(C(C)O)C3O)C(C)/C=C/C(=O)OC2C)OC(C)C(O)C1OC (stereo not drawn) [P10b, aldgamycin P10b]",,"methanol, n-butanol, ethanol, 1 and 2-propnol, ethyl acetate, acetone, chloroform and dichloromethane",,active,,,,
50,,1,1,,30,1,,,0.1,,,,"COC1C(OCC2C(C)OC(=O)/C=C/C(C)C(OC3OC(C)CC4(OC(=O)OC4C)C3O)C(C)CC(C)C(=O)/C=C/C3OC32)OC(C)C(O)C1OC (stereo not drawn) [P10a, aldgamycin G]",,"methanol, n-butanol, ethanol, 1 and 2-propnol, ethyl acetate, acetone, chloroform and dichloromethane; also recorded: MeOH, EtOH, Me2CO,; also recorded: n-BuOH, 1-PrOH, 2-; also recorded: PrOH, CH2Cl2,; also recorded: EtOAc, CHCl3",,active,,,,"soluble in (solvents) [2]: n-butanol, 1 and 2-propanol, methanol, dichloromethane, ethyl acetate, chloroform, acetone and ethanol"
75,n-hexane and toluene,5,40,> 100,50,10,> 100,> 100,5,> 100,> 100,> 100,"COc1cccc2c1C(=O)c1c(O)c3c(c(O)c1C2=O)CC(C)(O)CC3OC1OC(C)C(O)C(OC)C1O (stereo not drawn) [P11, mutactimycin C]",,"water, methanol, n-butanol, ethanol, 1-propanol and acetone; also recorded: MeOH, Me2CO, H20, n-; also recorded: BuOH, EtOH, 1-PrOH",,active,,,,"Relative solubility: Medium soluble (solvents) [2]: CH2Cl2, CHCl3, EtOAc, and 2-PrOH"

# Second part, the molecule before the results:
Structure (SMILES),MIC [1] [µg/mL],Relative solubility: Insoluble (solvents) [2],MIC [3] [µg/mL],MIC [4] [µg/mL],MIC [5] [µg/mL],MIC [6] [µg/mL],MIC [7] [µg/mL],MIC [8] [µg/mL],MIC [9] [µg/mL],MIC [10] [µg/mL],MIC [11] [µg/mL],MIC [12] [µg/mL],MIC [13] [µg/mL],activity in words [1],Relative solubility: Highly soluble (solvents) [2],activity in words [3],activity of the collected HPLC fraction against Bacillus subtilis (Bacillus subtilis),activity in words [4],activity in words [7],activity in words [10],further results
"COC1C(O)C(C)OC(OC2CC(C)(O)Cc3c(O)c4c(c(O)c32)C(=O)c2c(OC3OC(C)C(O)C(O)C3O)cccc2C4=O)C1O (stereo not drawn) [PR, mutactimycin PR]",> 100,"chloroform, dichloromethane, ethyl acetate, n-hexane and toluene",50,75,> 100,> 100,50,> 100,> 100,40,> 100,> 100,> 100,active,"water, methanol and ethanol",active,active,active,active,active,"Relative solubility: Highly soluble (solvents) ([2]; listed as mutactimycin PR): MeOH, EtOH, H2O; Relative solubility: Insoluble (solvents) ([2]; listed as mutactimycin PR): CH2Cl2, CHCl3,; also recorded: EtOAc, n-hexane,; also recorded: toluene; Relative solubility: Medium soluble (solvents) ([2]; listed as mutactimycin PR): Me2CO, n-BuOH, 1-; also recorded: PrOH, 2-PrOH"
"COc1cccc2c1C(=O)c1c(O)c3c(c(O)c1C2=O)CC(C)(O)CC3OC1OC(C)C(O)C(O)C1O (stereo not drawn) [F, mutactimycin F]",,n-hexane and toluene,,,,,,,,,,,,active,"n-BuOH, 1-PrOH",active,active,active,active,active,"soluble in (solvents) [2]: water, n-butanol, 1-propanol and ethanol; Relative solubility: Medium soluble (solvents) [2]: MeOH, EtOH; Relative solubility: Insoluble (solvents) ([2]; listed as Mutactimycin F): H2O, CH2Cl2, CHCl3; also recorded: EtOAc, Me2CO, n-hexane,; also recorded: toluene"
"CC1OC(Oc2cccc3c2C(=O)c2c(O)c4c(c(O)c2C3=O)CC(C)(O)CC4O)C(O)C(O)C1O (stereo not drawn) [G, mutactimycin G]",,"chloroform, dichloromethane, ethyl acetate, n-hexane and toluene; also recorded: H2O, CH2Cl2, CHCl3, EtOAc,; also recorded: Me2CO, n-hexane, toluene",,,,,,,,,,,,active,"n-BuOH, l-PrOH",active,active,active,active,active,"soluble in (solvents) [2]: water, n-butanol, 1-propanol, methanol and ethanol; Relative solubility: Medium soluble (solvents) [2]: MeOH, EtOH"
